Assay [1] addresses recombinant human Myt1 (full length PKMYT1) (Homo sapiens (Human), UniProt Q99640). The assay can be described thus: Recombinant human Myt1 kinase assay (ADP-Glo). The following applies: 10 μM ATP. It counts as biochemical. In outline:
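Full-length insect-cell-expressed human Myt1 (18 nM final) was preincubated with compound (0.5% DMSO) for 15 min at 22 °C. The reaction ran with 10 μM ATP for 60 min at 30 °C in HEPES buffer with Mg2+/Mn2+ and DTT. ADP formed was read by ADP-Glo luminescence, giving IC50 and % max inhibition.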
(ADP-Glo turns the ADP formed in a reaction into a luminescent signal.)

The test system of assay [2] is PKMYT1 (CDK1 pThr14) in FUOV1 cells. As to the kind of experiment: PKMYT1 cell-based activity assay, CDK1 pThr14 AlphaLISA in FUOV1 cells. The following applies: 2 h incubation, read-out: FUOV-1 CDK1 pThr14 IC50. In outline: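 FUOV1 cells were treated with PKMYT1 inhibitor for 2 h at 37 °C, then lysed. CDK1 pThr14 was measured by AlphaLISA, pairing an anti-pThr14 antibody with an anti-total CDK1 antibody (5 nM each). Signal read at 680/615 nm and used to derive IC50.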
(In general: Alpha assays give light when donor and acceptor beads are brought close together.)

Structures are written as SMILES. Like-named read-outs stand apart in the source and are kept apart here.

A word on the IC50: it is the concentration that inhibits the measured activity by half.

recombinant human Myt1 (full length PKMYT1), sequence (Q99640 whole entry): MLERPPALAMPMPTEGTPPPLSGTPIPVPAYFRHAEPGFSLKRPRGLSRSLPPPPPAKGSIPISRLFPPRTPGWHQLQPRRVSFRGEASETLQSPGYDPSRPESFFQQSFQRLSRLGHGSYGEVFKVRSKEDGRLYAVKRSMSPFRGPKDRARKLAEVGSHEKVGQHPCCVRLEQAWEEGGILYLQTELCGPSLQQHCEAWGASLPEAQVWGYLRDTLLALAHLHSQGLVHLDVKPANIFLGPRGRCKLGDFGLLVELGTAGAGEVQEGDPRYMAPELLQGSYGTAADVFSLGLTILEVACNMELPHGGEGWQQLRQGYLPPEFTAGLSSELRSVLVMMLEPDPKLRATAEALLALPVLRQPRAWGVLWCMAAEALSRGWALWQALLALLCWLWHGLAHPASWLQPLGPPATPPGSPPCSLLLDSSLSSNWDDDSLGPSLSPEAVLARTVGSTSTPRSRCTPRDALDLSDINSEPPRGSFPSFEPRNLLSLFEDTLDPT

On to `Cc1ccc(O)c(C)c1-c1cc(-c2nccc3ccccc23)nc(C(N)=O)c1N` [Compound 48], for which the half-inhibitory concentration (IC50) in assay [1] came to 55 nM; in assay [2] (2 h), 7740 nM.

With `CC(=O)Nc1cccc(-c2cc(-c3c(C)ccc(O)c3C)c(N)c(C(N)=O)n2)c1` [Compound 49], the IC50 in assay [1] is 6 nM; in assay [2] (2 h) it was 137 nM.

For `Cc1ccc(O)c(C)c1-c1cc(-c2ccco2)nc(C(N)=O)c1N` [Compound 50], the IC50 in assay [1] was 6 nM; in assay [2] (2 h), 368 nM.

As to `Cc1ccc(O)c(C)c1-c1cc(-c2cccc(C(N)=O)c2)nc(C(N)=O)c1N` [Compound 51], the values for the half-maximal inhibitory concentration (IC50) in assay [1] and in assay [2] (2 h) were 8 nM and 357 nM, respectively.

Take `Cc1ccc(O)c(C)c1-c1cc(-c2ccnnc2)nc(C(N)=O)c1N` [Compound 52]: the 50% inhibitory concentration (IC50) was determined as 8 nM in assay [1] and 45 nM in assay [2] (2 h).

`Cc1ccc(O)c(C)c1-c1cc(C2CC2)nc(C(N)=O)c1N` [Compound 54]: the IC50 in assay [1] is 18 nM; in assay [2] (2 h), 2410 nM.

As for `Cc1ccc(O)c(C)c1-c1cc(-c2nc3ccccc3s2)nc(C(N)=O)c1N` [Compound 55], the IC50 in assay [1] worked out at 15 nM; in assay [2], 146 nM.

Consider `Cc1ccc(O)c(C)c1-c1cc(-c2nc3ccccc3o2)nc(C(N)=O)c1N` [Compound 56], for which the 50% inhibitory concentration (IC50) turned out to be 7 nM in assay [1] and 373 nM in assay [2] (2 h).

With `Cc1ccc(O)c(C)c1-c1cc(-c2cccc(OC3CCOCC3)n2)nc(C(N)=O)c1N` [Compound 57], the IC50 in assay [1] was 7 nM; in assay [2] (2 h) it was 46 nM.

As to `Cc1ccc(O)c(C)c1-c1cc(-c2nc3ccccc3s2)nc(C(N)=O)c1N` [Compound 58], the values for the IC50 in assay [1] and in assay [2] were 5 nM and 387 nM, respectively.

As for `COc1ccc(-c2cc(-c3c(C)ccc(O)c3C)c(N)c(C(N)=O)n2)nc1` [Compound 59], the 50% inhibitory concentration (IC50) stood at 4 nM in assay [1] and 59 nM in assay [2] (2 h).

In the case of `Cc1ccc(O)c(C)c1-c1cc(-c2cccc(C(F)(F)F)n2)nc(C(N)=O)c1N` [Compound 60], the results for the IC50 in assay [1] and in assay [2] (2 h) were 11 nM and 1820 nM, respectively.

For `COc1ccc(-c2cc(-c3c(C)ccc(O)c3C)c(N)c(C(N)=O)n2)nc1` [Compound 61], the results for the concentration for half-maximal inhibition (IC50) in assay [1] and in assay [2] were 2 nM and 68 nM, respectively.

Turning to `COc1cccc(-c2cc(-c3c(C)ccc(O)c3C)c(N)c(C(N)=O)n2)n1` [Compound 62], the concentration for half-maximal inhibition (IC50) in assay [1] was 8 nM; in assay [2] (2 h), 117 nM.

Take `Cc1ccc(O)c(C)c1-c1cc(-c2ccnnc2)nc(C(N)=O)c1N` [Compound 63]: the figures for the concentration for half-maximal inhibition (IC50) in assay [1] and in assay [2] were 5 nM and 40 nM, respectively.

Regarding `Cc1ccc(O)c(C)c1-c1cc(-c2ccnc(N)c2)cc(C(N)=O)c1N` [Compound 64], the IC50 in assay [1] was 6 nM; in assay [2] (2 h), 260 nM.

`Cc1ccc2[nH]ncc2c1-c1nc(-c2ccccc2)nc(C(N)=O)c1N` [Compound 65]: the IC50 in assay [1] was determined as 22 nM; in assay [2] (2 h), 1070 nM.

With `COc1cccc(-c2cc(-c3c(C)ccc(O)c3C)c(N)c(C(N)=O)n2)n1` [Compound 66], the IC50 in assay [1] came out at 2 nM; in assay [2], 168 nM.

For the compound `Cc1ccc(O)c(C)c1-c1cc(-c2cc(C(F)(F)F)ccn2)nc(C(N)=O)c1N` [Compound 67], the IC50 in assay [1] stood at 2 nM; in assay [2] (2 h), 272 nM.

For `NC(=O)c1nc(-c2ccccc2)nc(-c2cccc3[nH]ncc23)c1N` [Compound 68], the IC50 in assay [1] was 50 nM; in assay [2] (2 h), greater than 10000 nM.

With `NC(=O)c1nc(-c2ccccn2)cc(-c2cccc3[nH]ncc23)c1N` [Compound 70], the IC50 was 29 nM in assay [1] and 1470 nM in assay [2] (2 h).

On to `Cc1ccc(O)c(C)c1-c1cc(-c2cncnc2)nc(C(N)=O)c1N` [Compound 71], for which the concentration for half-maximal inhibition (IC50) in assay [1] was 9 nM; in assay [2] (2 h) it was 298 nM.

For the compound `Cc1ccc(O)c(C)c1-c1cc(-c2cccc(=O)[nH]2)nc(C(N)=O)c1N` [Compound 72], the IC50 in assay [1] worked out at 10 nM; in assay [2] (2 h), 77 nM.

Consider `Cc1ccc(O)c(C)c1-c1cc(-c2ncccn2)cc(C(N)=O)c1N` [Compound 78], for which the results for the IC50 in assay [1] and in assay [2] (2 h) were 9 nM and 326 nM, respectively.

On to `Cc1ccc(O)c(C)c1-c1cc(-c2ccncn2)nc(C(N)=O)c1N` [Compound 79], for which the 50% inhibitory concentration (IC50) in assay [1] was found to be 8 nM; in assay [2] it was 90 nM.

In the case of `Cc1ccc(O)c(C)c1-c1cc(-c2ccccn2)cc(C(N)=O)c1N` [Compound 80], the concentration for half-maximal inhibition (IC50) in assay [1] is 8 nM; in assay [2] (2 h), 259 nM.

As for `Cc1ccc(O)c(C)c1-c1cc(-c2nccs2)cc(C(N)=O)c1N` [Compound 81], the IC50 was 5 nM in assay [1] and 112 nM in assay [2] (2 h).

Consider `Cc1ccc(O)c(C)c1-c1cc(-c2cncs2)nc(C(N)=O)c1N` [Compound 82], for which the IC50 in assay [1] stood at 7 nM; in assay [2] (2 h), 107 nM.

In the case of `Cc1cccc(-c2cc(-c3c(C)ccc(O)c3C)c(N)c(C(N)=O)n2)n1` [Compound 83], the IC50 was determined as 6 nM in assay [1] and 188 nM in assay [2] (2 h).

For the compound `Cc1ccc(O)c(C)c1-c1cc(-c2cnccn2)cc(C(N)=O)c1N` [Compound 84], the figures for the IC50 in assay [1] and in assay [2] (2 h) were 10 nM and 357 nM, respectively.

Consider `Cc1ccc2[nH]ncc2c1-c1cc(-c2cncs2)nc(C(N)=O)c1N` [Compound 85], for which the IC50 worked out at 22 nM in assay [1] and 1450 nM in assay [2] (2 h).

In the case of `Cc1ccc2[nH]ncc2c1-c1cc(-c2ccnnc2)nc(C(N)=O)c1N` [Compound 86], the half-maximal inhibitory concentration (IC50) is 58 nM in assay [1] and 945 nM in assay [2].

Regarding `Cc1ccc2[nH]ncc2c1-c1cc(-c2ccccn2)nc(C(N)=O)c1N` [Compound 87], the results for the 50% inhibitory concentration (IC50) in assay [1] and in assay [2] (2 h) were 11 nM and 567 nM, respectively.

For `Cc1ccc(O)c(C)c1-c1nc(-c2ccnnc2)cc(C(N)=O)c1N` [Compound 88], the figures for the half-inhibitory concentration (IC50) in assay [1] and in assay [2] were 7 nM and 401 nM, respectively.

Regarding `Cc1ccc(O)c(C)c1-c1cc(-c2ccncn2)nc(C(N)=O)c1N` [Compound 89], the half-inhibitory concentration (IC50) in assay [1] was determined as 3 nM; in assay [2], 16 nM.

Take `Cc1ccc(O)c(C)c1-c1cc(-c2cncs2)nc(C(N)=O)c1N` [Compound 90]: the IC50 worked out at 3 nM in assay [1] and 58 nM in assay [2].

As for `Cc1cccc(-c2cc(-c3c(C)ccc(O)c3C)c(N)c(C(N)=O)n2)n1` [Compound 91], the IC50 in assay [1] was 3 nM; in assay [2] it was 113 nM.

For the compound `Cc1ccc(O)c(C)c1-c1cc(-c2ccns2)cc(C(N)=O)c1N` [Compound 92], the IC50 in assay [1] turned out to be 5 nM; in assay [2] (2 h), 131 nM.

With `Cc1ccc(O)c(C)c1-c1cc(-c2ccnnc2)cc(C(N)=O)c1N` [Compound 93], the half-maximal inhibitory concentration (IC50) is 25 nM in assay [1] and 937 nM in assay [2] (2 h).

On to `Cc1ccc(O)c(C)c1-c1cc(-c2cccc(OC3CCOCC3)n2)nc(C(N)=O)c1N` [Compound 94], for which the IC50 in assay [1] is 2 nM; in assay [2], 31 nM.

As to `Cc1ccc2[nH]ncc2c1-c1cc(-c2ccnnc2)nc(C(N)=O)c1N` [Compound 95], the IC50 worked out at 16 nM in assay [1] and 1700 nM in assay [2] (2 h).

For the compound `Cc1ccc2[nH]ncc2c1-c1nc(-c2ccncc2)nc(C(N)=O)c1N` [Compound 100], the IC50 in assay [1] stood at 27 nM; in assay [2] (2 h), 1230 nM.

On to `Cc1cccc(-c2nc(C(N)=O)c(N)c(-c3c(C)ccc4[nH]ncc34)n2)c1` [Compound 101], for which the IC50 amounted to 26 nM in assay [1] and 570 nM in assay [2] (2 h).

For `Cc1ccc2[nH]ncc2c1-c1nc(-c2cccc(N3CCOCC3)c2)nc(C(N)=O)c1N` [Compound 102], the IC50 in assay [1] was 19 nM; in assay [2] (2 h) it was 462 nM.

For the compound `Cc1ccc2[nH]ncc2c1-c1cc(-c2ccncn2)nc(C(N)=O)c1N` [Compound 105], the half-maximal inhibitory concentration (IC50) in assay [1] is 12 nM; in assay [2] (2 h), 551 nM.

As for `Cc1ccc2[nH]ncc2c1-c1cc(-c2cccnc2)nc(C(N)=O)c1N` [Compound 107], the IC50 in assay [1] was determined as 11 nM; in assay [2] (2 h), 495 nM.

Regarding `Cc1ccc2[nH]ncc2c1-c1nc(-c2nccs2)nc(C(N)=O)c1N` [Compound 108], the half-maximal inhibitory concentration (IC50) in assay [1] was found to be 79 nM; in assay [2] (2 h), 7400 nM.

With `Cc1ccc2[nH]ncc2c1-c1nc(-c2ccns2)nc(C(N)=O)c1N` [Compound 109], the IC50 in assay [1] stood at 23 nM; in assay [2] (2 h), 717 nM.

In the case of `Cc1ccc(-c2nc(C(N)=O)c(N)c(-c3c(C)ccc4[nH]ncc34)n2)s1` [Compound 110], the concentration for half-maximal inhibition (IC50) in assay [1] was determined as 23 nM; in assay [2] (2 h), 883 nM.

On to `Cc1ccc2[nH]ncc2c1-c1nc(-c2ccc3c(cnn3C)c2)nc(C(N)=O)c1N` [Compound 114], for which the IC50 in assay [1] was determined as 46 nM; in assay [2] (2 h), 3760 nM.

On to `NC(=O)c1nc(-c2ccccc2)nc(-c2c(Cl)ccc3[nH]ncc23)c1N` [Compound 115, 5-amino-6-(5-chloro-1H-indazol-4-yl)-2-phenylpyrimidine-4-carboxamide], for which the figures for the IC50 in assay [1] and in assay [2] (2 h) were 15 nM and 2230 nM, respectively.

In the case of `NC(=O)c1nc(-c2ccccc2)nc(-c2ccc(F)c3[nH]ncc23)c1N` [Compound 121], the figures for the IC50 in assay [1] and in assay [2] (2 h) were 49 nM and greater than 10000 nM, respectively.

As to `NC(=O)c1nc(-c2ccccc2)nc(-c2cc(F)cc3[nH]ncc23)c1N` [Compound 122], the results for the IC50 in assay [1] and in assay [2] (2 h) were 137 nM and 820 nM, respectively.

Consider `NC(=O)c1nc(-c2ccccc2)nc(-c2cccc3[nH]nc(F)c23)c1N` [Compound 123], for which the IC50 in assay [1] is 99 nM; in assay [2] (2 h) it was greater than 10000 nM.

Consider `Cc1ccc2[nH]ncc2c1-c1nc(-c2cccc(C#N)c2)nc(C(N)=O)c1N` [Compound 131, 5-amino-2-(3-cyanophenyl)-6-(5-methyl-1H-indazol-4-yl)pyrimidine-4-carboxamide], for which the values for the IC50 in assay [1] and in assay [2] (2 h) were 22 nM and 1370 nM, respectively.
